Results from US20250059174A1, “Pharmaceutical Compounds and Compositions as C-Kit Kinase Inhibitors” (Enanta Pharmaceuticals, Inc., priority 2023, published 2025).

Tests used:
M-07e cells = assay: M-07e cellular assay (SCF-mediated cell proliferation); format: cell-based; conditions: Homo sapiens, 72 hours, CellTiter Glo
How it was run: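 CellTiter Glo luminescence after 72 h compound exposure in SCF (EC90)-stimulated M-07e cells expressing endogenous human c-KIT.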

[1] = biological target: Recombinant human c-KIT kinase (Homo sapiens (Human), UniProt P10721); assay: c-KIT kinase chemiluminescence assay (ADP-Glo); format: biochemical; conditions: ATP 50 μM
How it was run: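 Recombinant human c-KIT preincubated 30 min at RT in 40 mM Tris pH 7.5, 20 mM MgCl2, 0.1 mg/mL BSA, 50 μM DTT, then reacted 2 h at RT with ATP and polyEY substrate. ADP-Glo luminescence readout; activity normalized to high/low controls, IC50 and Hill coefficient from inhibitor-versus-normalized-response fit.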

Sequence of Recombinant human c-KIT kinase (P10721 26-976): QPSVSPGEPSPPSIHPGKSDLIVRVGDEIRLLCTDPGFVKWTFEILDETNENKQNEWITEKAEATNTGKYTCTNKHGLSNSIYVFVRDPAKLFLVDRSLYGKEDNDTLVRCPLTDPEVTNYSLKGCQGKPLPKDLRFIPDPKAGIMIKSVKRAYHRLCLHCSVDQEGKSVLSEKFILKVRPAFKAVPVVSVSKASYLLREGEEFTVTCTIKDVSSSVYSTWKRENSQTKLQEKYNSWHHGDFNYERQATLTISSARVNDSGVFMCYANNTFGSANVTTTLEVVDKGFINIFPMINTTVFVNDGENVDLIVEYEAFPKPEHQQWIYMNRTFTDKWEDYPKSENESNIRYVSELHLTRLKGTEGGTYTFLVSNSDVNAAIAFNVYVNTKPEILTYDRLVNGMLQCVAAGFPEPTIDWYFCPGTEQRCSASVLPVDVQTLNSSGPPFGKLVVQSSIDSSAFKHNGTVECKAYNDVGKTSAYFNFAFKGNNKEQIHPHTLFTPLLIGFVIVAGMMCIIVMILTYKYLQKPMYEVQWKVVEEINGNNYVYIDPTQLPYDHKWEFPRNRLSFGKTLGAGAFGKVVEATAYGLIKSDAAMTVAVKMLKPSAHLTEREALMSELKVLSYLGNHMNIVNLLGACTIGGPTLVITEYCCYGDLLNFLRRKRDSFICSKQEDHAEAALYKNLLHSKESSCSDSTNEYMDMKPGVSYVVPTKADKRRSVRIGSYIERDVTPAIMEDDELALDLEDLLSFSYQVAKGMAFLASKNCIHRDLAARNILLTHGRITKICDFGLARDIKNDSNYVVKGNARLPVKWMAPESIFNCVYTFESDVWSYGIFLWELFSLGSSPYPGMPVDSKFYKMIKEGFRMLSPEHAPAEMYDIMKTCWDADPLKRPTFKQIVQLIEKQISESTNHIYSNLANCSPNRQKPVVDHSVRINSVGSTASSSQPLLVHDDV

IC50 [1]	SMILES	EC50 (M-07e cells)
0.1 to 1 µM	Cc1ccc(-c2noc([C@H]3C[C@@H]3F)n2)cc1NC(=O)c1cnn2ccc(-c3cc(C(F)(F)F)nn3C)cc12 [Example 171-22]	0.1 to 1 µM
< 0.1 µM	Cc1cnc(-c2ccn3ncc(C(=O)Nc4cc(-c5noc([C@H]6C[C@@H]6F)n5)ccc4C)c3c2)c(C)n1 [Example 171-30]	< 0.1 µM
< 0.1 µM	Cc1ccc(-c2noc([C@H]3C[C@@H]3F)n2)cc1NC(=O)c1cnn2ccc(N3CCOCC3)cc12 [Example 241]	< 0.1 µM
< 0.1 µM	COC(=O)N1CC(c2nc(-c3ccc(Cl)c(NC(=O)c4cnn5cc(-c6cn(C(F)F)nn6)ccc45)c3)no2)C1 [Example 132-17]	< 0.1 µM
0.1 to 1 µM	Cc1ncc(-c2noc([C@H]3C[C@@H]3F)n2)cc1NC(=O)c1cnn2ccc(N3CC4(COC4)C3)cc12 [Example 268]	0.1 to 1 µM
< 0.1 µM	Cc1ccc(-c2noc([C@H]3C[C@@H]3F)n2)cc1NC(=O)c1cnn2ccc(N3CC4(C3)CC(F)(F)C4)cc12 [Example 213]	< 0.1 µM
< 0.1 µM	Cc1ccc(-c2ncc3cccn3n2)cc1NC(=O)c1cnn2ccc(N3CC4(C3)CC(O)(C(F)F)C4)cc12 [Example 320]	< 0.1 µM
< 0.1 µM	Cc1cc(F)c(-c2noc([C@H]3C[C@@H]3F)n2)cc1NC(=O)c1cnn2ccc(N3CC4(COC4)C3)cc12 [Example 281-42]	< 0.1 µM
> 1 µM	Cc1ccc(-c2noc([C@H]3C[C@@H]3F)n2)cc1NC(=O)c1ccc2c(c1)CC(=O)N2 [Example 98-6]	> 1 µM
< 0.1 µM	Cc1ccc(-c2noc([C@@H]3C[C@@H]3C(F)F)n2)cc1NC(=O)c1cnn2ccc(N3CC4(COC4)C3)cc12 [Example 277]	< 0.1 µM
< 0.1 µM	Cc1ccc(-c2noc([C@H]3C[C@@H]3F)n2)cc1NC(=O)c1cnc2n1CCc1ccccc1-2 [Example 100]	0.1 to 1 µM
< 0.1 µM	Cc1cc(F)c(-c2noc([C@H]3C[C@@H]3F)n2)cc1NC(=O)c1cnn2ccc(N3CC4(C3)CN(S(C)(=O)=O)C4)cc12 [Example 281-24]	0.1 to 1 µM
0.1 to 1 µM	Cc1ncc(-c2noc([C@@H]3CN(C(=O)C4(F)CC4)[C@H]3C)n2)cc1NC(=O)c1cnn2ccc(N3CC4(C3)CC(O)(C(F)F)C4)cc12 [Example 281-11]	0.1 to 1 µM
0.1 to 1 µM	Cc1ccc(-c2noc([C@H]3C[C@@H](OC(F)(F)F)C3)n2)cc1NC(=O)c1cnn2ccc(N3CC4(CCN(CC(F)(F)F)C4)C3)cc12 [Example 252]	0.1 to 1 µM
< 0.1 µM	COC(=O)N1CC(c2nc(-c3ccc(C)c(NC(=O)c4cnc(-c5ccc6c(c5)CC(=O)N6)o4)c3)no2)C1 [Example 308-58]	0.1 to 1 µM
0.1 to 1 µM	CC(=O)Nc1nc(C)c(-c2ccn3ncc(C(=O)Nc4cc(-c5noc([C@H]6C[C@@H]6F)n5)ccc4C)c3c2)c(C)n1 [Example 171-31]	< 0.1 µM
< 0.1 µM	Cc1nc2cc(-c3ncc(C(=O)Nc4cc(-c5noc([C@H]6C[C@@H]6F)n5)ccc4C)o3)ccc2[nH]1 [Example 308-40]	< 0.1 µM

More lines, now with the values behind:

SMILES	IC50 [1]	EC50 (M-07e cells)
Cc1ccc(-c2noc([C@H]3C[C@@H]3F)n2)cc1NC(=O)c1cnn2ccc(N3C[C@@H](CS(C)(=O)=O)[C@H]3C)cc12 [Example 175]	< 0.1 µM	< 0.1 µM
Cc1ccc(-c2noc([C@H]3C[C@@H]3F)n2)cc1NC(=O)c1cnn2ccc(N3CCN(C(=O)C(F)(F)F)[C@H](C)C3)cc12 [Example 241-4]	< 0.1 µM	< 0.1 µM
CC(=O)Nc1ccc(-c2ncc(C(=O)Nc3cc(-c4noc([C@H]5C[C@@H]5F)n4)ccc3C)o2)cc1 [Example 308-19]	0.1 to 1 µM	0.1 to 1 µM
COC(=O)N1CC2(CC(c3nc(-c4ccc(C)c(NC(=O)c5cnn6ccc(N7CC8(C7)CC(O)(C(F)F)C8)cc56)c4)no3)C2)C1 [Example 281-109]	< 0.1 µM	0.1 to 1 µM
Cc1nc(Nc2ncc(C(=O)Nc3cc(-c4noc([C@H]5C[C@@H]5F)n4)ccc3C)s2)cc(N2CC3(COC3)C2)n1 [Example 98-1]	< 0.1 µM	< 0.1 µM
Cc1ccc(-c2nc3n(n2)CCN(C(=O)OC(C)(C)C)C3)cc1NC(=O)c1cnn2ccc(N3CC4(C3)CC(O)(C(F)F)C4)cc12 [Example 322]	< 0.1 µM	0.1 to 1 µM
Cc1ccc(-c2noc([C@H]3C[C@@H]3F)n2)cc1NC(=O)c1cnn2cc(F)ccc12 [Example 1a]	0.1 to 1 µM	0.1 to 1 µM
Cc1ccc(-c2noc([C@H]3C[C@@H]3F)n2)cc1NC(=O)c1cnc(-c2ccccc2N2CC3(COC3)C2)o1 [Example 289]	> 1 µM	> 1 µM
Cc1nnc(N2CC(c3nc(-c4cnc(C)c(NC(=O)c5cnn6ccc(N7CC8(C7)CC(O)(C(F)F)C8)cc56)c4)no3)C2)o1 [Example 281-70]	> 1 µM	> 1 µM
O=C(Nc1cc(-c2ccc(C3CC3)cn2)ccc1Cl)c1cnn2ccc(N3CC4(C3)CC(O)(C(F)F)C4)cc12 [Example 352]	> 1 µM	> 1 µM
Cc1ccc(-c2noc([C@H]3C[C@@H]3F)n2)cc1NC(=O)c1cnn2ccc(-c3cnc(N4CC(F)(F)C4)cc3C)cc12 [Example 171-24]	< 0.1 µM	< 0.1 µM
Cc1ccc(-c2noc(C34CC(OC(F)F)(C3)C4)n2)cc1NC(=O)c1cnn2ccc(N3CC4(COC4)C3)cc12 [Example 271]	< 0.1 µM	< 0.1 µM
COC(=O)N1CC(c2nc(-c3cc(NC(=O)c4cnc(-c5ccc6c(c5)CC(=O)N6)o4)c(C)cc3F)no2)C1 [Example 308-59]	0.1 to 1 µM	0.1 to 1 µM
Cc1ccc(-c2noc([C@H]3C[C@@H]3F)n2)cc1NC(=O)c1cnn2ccc(N3CCN(CC(F)(F)F)[C@H](C)C3)cc12 [Example 230]	< 0.1 µM	< 0.1 µM
Cc1ccc(-c2noc([C@H]3C[C@@H]3F)n2)cc1NC(=O)c1cnn2ccccc12 [Example 6]	< 0.1 µM	< 0.1 µM
Cc1ncc(-c2ccc(C3CC3)cn2)cc1NC(=O)c1cnn2ccc(N3CC4(C3)CC(O)(C(F)F)C4)cc12 [Example 356]	< 0.1 µM	< 0.1 µM
Cc1ccc(-c2nc3n(n2)CCN(C(=O)C2CC2)C3)cc1NC(=O)c1cnn2ccc(N3CC4(C3)CC(O)(C(F)F)C4)cc12 [Example 323]	0.1 to 1 µM	> 1 µM
Cc1ccc(-c2noc(C3CN(C(=O)[C@H]4C[C@@H]4F)C3)n2)cc1NC(=O)c1cnn2ccc(N3CC4(C3)CC(O)(C(F)F)C4)cc12 [Example 281-34]	0.1 to 1 µM	0.1 to 1 µM

SMILES	IC50 [1]	EC50 (M-07e cells)
Cc1ccc(-c2noc([C@H]3C[C@@H]3F)n2)cc1NC(=O)c1cnn2ccc(N3CC[C@H](N(C)C(=O)OC(C)(C)C)C3)cc12 [Example 203]	< 0.1 µM	0.1 to 1 µM
Cc1ccc(-c2noc([C@H]3C[C@@H]3F)n2)cc1NC(=O)c1cnn2ccc(N3CC[C@H]3C(=O)OC(C)(C)C)cc12 [Example 209]	0.1 to 1 µM	0.1 to 1 µM
Cc1sc(-c2noc([C@H]3C[C@@H]3F)n2)cc1NC(=O)c1cnn2ccc(N3CC4(C3)CC(O)(C(F)F)C4)cc12 [Example 281-95]	0.1 to 1 µM	< 0.1 µM
Cc1ccc(-c2noc([C@H]3C[C@@H](OC(F)F)C3)n2)cc1NC(=O)c1cnn2ccc(N3CC4(C3)CC(O)(C(F)F)C4)cc12 [Example 281-20]	< 0.1 µM	< 0.1 µM
Cc1ncc(-c2nnn(C3CC(F)(F)C3)n2)cc1NC(=O)c1cnn2ccc(N3CC4(C3)CC(O)(C(F)F)C4)cc12 [Example 312]	0.1 to 1 µM	< 0.1 µM
Cc1ccc(-c2noc([C@H]3C[C@@H]3F)n2)cc1NC(=O)c1cnn2ccc(N3C4COCC3C4)cc12 [Example 189]	< 0.1 µM	< 0.1 µM
Cc1ccc(-c2noc(C3CCN(C(=O)[C@H]4C[C@@H]4F)C3)n2)cc1NC(=O)c1cnn2ccc(N3CC4(C3)CC(O)(C(F)F)C4)cc12 (some centres unmarked) [Example 281-96]	0.1 to 1 µM	0.1 to 1 µM
Cc1ccc(-c2noc(C3CN(C(=O)C4CC4)C3)n2)cc1NC(=O)c1cnn2ccc(N3CC4(COC4)C3)cc12 [Example 281-46]	0.1 to 1 µM	0.1 to 1 µM
Cc1sc(-c2noc(C3CN(C(=O)OC(C)(C)C)C3)n2)cc1NC(=O)c1cnn2ccc(N3CC4(COC4)C3)cc12 [Example 281-114]	> 1 µM	> 1 µM
COC12CC(c3nc(-c4ccc(C)c(NC(=O)c5cnn6ccc(N7CC8(COC8)C7)cc56)c4)no3)(C1)C2 [Example 272]	< 0.1 µM	< 0.1 µM
Cc1ccc(-c2noc([C@H]3C[C@@H]3F)n2)cc1NC(=O)c1cnn2ccc(N3CCC4(COC4)C3)cc12 [Example 173]	< 0.1 µM	< 0.1 µM
Cc1ncc(-c2noc([C@H]3C[C@H](C(F)(F)F)C3)n2)cc1NC(=O)c1cnn2ccc(N3CC4(C3)CC(O)(C(F)F)C4)cc12 [Example 281-68]	< 0.1 µM	< 0.1 µM
COc1ccccc1-c1ncc(C(=O)Nc2cc(-c3noc([C@H]4C[C@@H]4F)n3)ccc2C)o1 [Example 284]	> 1 µM	> 1 µM
Cc1ccc(-c2noc([C@H]3C[C@@H]3F)n2)cc1NC(=O)c1cnn2ccc(-c3cnc(N)cc3C)cc12 [Example 171-28]	< 0.1 µM	< 0.1 µM
Cc1ccc(-c2noc([C@H]3C[C@@H]3F)n2)cc1NC(=O)c1cnn2ccc(N3C[C@H]4C[C@@H]3CO4)cc12 [Example 199]	< 0.1 µM	< 0.1 µM
Cc1ccc(-c2noc([C@H]3C[C@@H]3F)n2)cc1NC(=O)c1cnc(-c2ccc3cc[nH]c3c2)o1 [Example 295]	< 0.1 µM	0.1 to 1 µM
Cc1ccc(-c2ncc(OC(F)(F)F)cn2)cc1NC(=O)c1cnn2ccc(N3CC4(COC4)C3)cc12 [Example 348]	< 0.1 µM	< 0.1 µM
